Active and inactive are the calls of the source. Cut-off read from the data, not from the text of the source: actives have a measured IC50 and inactives only a lower limit.

For the assay, the target named is Envelope glycoprotein gp160 (Human immunodeficiency virus 1, UniProt Q6QLK5). The experiment in a line: inhibitors of HIV fusion peptide binding, primary screen, biochemical, uHTS, fluorescence dequenching (AID 1986).
Sequence of Envelope glycoprotein gp160 (Q6QLK5 whole entry, the tested form may be a part): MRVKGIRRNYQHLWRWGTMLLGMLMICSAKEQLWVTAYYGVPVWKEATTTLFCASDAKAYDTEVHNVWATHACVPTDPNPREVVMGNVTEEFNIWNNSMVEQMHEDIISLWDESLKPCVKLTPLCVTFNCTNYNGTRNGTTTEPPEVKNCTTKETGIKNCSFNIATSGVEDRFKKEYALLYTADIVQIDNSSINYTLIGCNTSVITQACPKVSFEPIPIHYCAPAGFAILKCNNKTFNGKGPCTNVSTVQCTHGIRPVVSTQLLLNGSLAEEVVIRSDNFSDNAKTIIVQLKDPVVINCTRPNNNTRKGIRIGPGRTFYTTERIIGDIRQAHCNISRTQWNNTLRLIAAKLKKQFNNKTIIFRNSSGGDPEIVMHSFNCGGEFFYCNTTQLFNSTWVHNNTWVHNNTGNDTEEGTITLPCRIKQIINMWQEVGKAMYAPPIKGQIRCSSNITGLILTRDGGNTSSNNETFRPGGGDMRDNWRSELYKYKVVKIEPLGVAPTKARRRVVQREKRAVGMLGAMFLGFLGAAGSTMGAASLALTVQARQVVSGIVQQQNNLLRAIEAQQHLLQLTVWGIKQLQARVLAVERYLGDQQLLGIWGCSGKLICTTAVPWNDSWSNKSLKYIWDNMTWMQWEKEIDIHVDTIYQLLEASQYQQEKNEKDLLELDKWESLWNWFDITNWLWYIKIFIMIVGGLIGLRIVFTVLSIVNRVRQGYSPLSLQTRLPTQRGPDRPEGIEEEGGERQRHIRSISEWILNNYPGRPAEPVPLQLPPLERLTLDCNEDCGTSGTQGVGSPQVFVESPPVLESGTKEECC
Regarding `O=C(CSc1nc2ccccc2c(=O)n1Cc1ccccc1)Nc1ccc(Br)cc1C(=O)O`, the 50% inhibitory concentration (IC50) (in general, the point on the concentration scale where inhibition reaches its midpoint) is 14.4 µM (active). The result for `Cc1ccc(F)c(NC(=O)/C(C#N)=C(\O)c2ccc(C(C)(C)C)cc2)c1` reads 19.6 µM (active). The result for `O=c1/c(=C\c2cc([N+](=O)[O-])cc([N+](=O)[O-])c2O)sc2nc3ccccc3n12` reads 6.01 µM (active).

Source of the values: ChEMBL document CHEMBL1201862, “PubChem BioAssay data set” (2004).
